Assay results published in US9598414B2, “Substituted benzo[5,6]azepino[3,2,1-hi]pyrido[4,3-b]indoles and substituted benzo[6,7][1,4]oxazepino[2,3,4-hi]pyrido[4,3-b]indoles for treating CNS disorders” (Daya Drug Discoveries, Inc., priority 2013, dated 2017).

Assays:
Sigma σ1 = Sigma σ1 (Homo sapiens, UniProt Q99720); test: Receptor binding, σ1
α-Adrenergic α2B = biological target: T1, α-Adrenergic α2B (Homo sapiens, UniProt P18089); test: Receptor binding, α2B
T1 sequence (P18089 1-450): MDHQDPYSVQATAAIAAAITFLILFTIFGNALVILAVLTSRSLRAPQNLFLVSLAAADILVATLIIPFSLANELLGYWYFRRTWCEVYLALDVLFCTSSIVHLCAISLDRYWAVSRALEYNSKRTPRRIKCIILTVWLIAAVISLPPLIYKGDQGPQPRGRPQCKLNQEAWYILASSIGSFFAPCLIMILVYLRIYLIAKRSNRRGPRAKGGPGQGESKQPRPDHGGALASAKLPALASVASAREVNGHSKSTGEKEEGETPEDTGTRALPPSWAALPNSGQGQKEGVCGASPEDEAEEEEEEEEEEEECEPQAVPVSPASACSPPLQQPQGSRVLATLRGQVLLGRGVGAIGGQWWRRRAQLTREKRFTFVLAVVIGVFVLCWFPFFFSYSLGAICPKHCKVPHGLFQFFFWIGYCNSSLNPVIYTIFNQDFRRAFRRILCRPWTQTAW

α-Adrenergic α1A = α-Adrenergic α1A (Homo sapiens, UniProt P35348); test: Receptor binding, α1A
α-Adrenergic α2C = biological target: T2, α-Adrenergic α2C (Homo sapiens, UniProt P18825); test: Receptor binding, α2C
T2 sequence (P18825 1-462): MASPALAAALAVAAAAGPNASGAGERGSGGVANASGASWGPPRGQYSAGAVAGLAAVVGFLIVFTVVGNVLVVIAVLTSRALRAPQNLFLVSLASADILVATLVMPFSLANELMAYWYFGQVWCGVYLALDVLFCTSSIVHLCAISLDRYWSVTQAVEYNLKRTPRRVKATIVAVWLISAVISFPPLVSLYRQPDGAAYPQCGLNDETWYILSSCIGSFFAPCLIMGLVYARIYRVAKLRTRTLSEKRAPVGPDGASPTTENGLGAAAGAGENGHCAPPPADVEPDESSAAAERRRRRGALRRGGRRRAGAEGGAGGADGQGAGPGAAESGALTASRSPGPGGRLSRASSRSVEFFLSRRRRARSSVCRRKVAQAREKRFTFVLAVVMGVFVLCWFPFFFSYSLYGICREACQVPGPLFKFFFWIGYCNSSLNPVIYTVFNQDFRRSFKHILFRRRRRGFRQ

Dopamine D5 = Dopamine D5 (Homo sapiens, UniProt P21918); test: Receptor binding, D5
Serotonin 5-HT2B = Serotonin 5-HT2B (Homo sapiens, UniProt P41595); test: Receptor binding, 5-HT2B
Histamine H2 = Histamine H2 (Homo sapiens, UniProt P25021); test: Receptor binding, H2
[1] = system: mice (129SV/PAS background); test: MDMA-induced motor behavior (locomotor activity); assay type: in vivo; settings: FIG. 4
Experimental: In this in vivo study, locomotor activity was measured in a circular corridor with four infrared beams placed at every 90° (Imetronic, France). Counts were incremented by consecutive interruption of two adjacent beams (i.e. mice moving through one-quarter of the corridor). DDD-024 was tested in MDMA-induced motor behavior at 5, 10 and 20 mg/kg, ip, in mice (129SV/PAS background, 8 week old, Charles River Laboratories). The animals were injected with vehicle and individually placed in the activity box for 30 min during 3 days consecutively for habituation before experiments. Mice received vehicle or DDD-024 (5-20 mg/kg, i.p.) injection 30 min before MDMA injection (10 mg/kg).

Muscarinic M4 = Muscarinic M4 (Homo sapiens, UniProt P08173); test: Receptor binding, M4
β-Adrenergic β2 = β-Adrenergic β2 (Homo sapiens, UniProt P07550); test: Receptor binding, β2
Serotonin 5-HT2C = biological target: T3, Serotonin 5-HT2C (Homo sapiens, UniProt P28335); test: Receptor binding, 5-HT2C
T3 sequence (P28335 33-458): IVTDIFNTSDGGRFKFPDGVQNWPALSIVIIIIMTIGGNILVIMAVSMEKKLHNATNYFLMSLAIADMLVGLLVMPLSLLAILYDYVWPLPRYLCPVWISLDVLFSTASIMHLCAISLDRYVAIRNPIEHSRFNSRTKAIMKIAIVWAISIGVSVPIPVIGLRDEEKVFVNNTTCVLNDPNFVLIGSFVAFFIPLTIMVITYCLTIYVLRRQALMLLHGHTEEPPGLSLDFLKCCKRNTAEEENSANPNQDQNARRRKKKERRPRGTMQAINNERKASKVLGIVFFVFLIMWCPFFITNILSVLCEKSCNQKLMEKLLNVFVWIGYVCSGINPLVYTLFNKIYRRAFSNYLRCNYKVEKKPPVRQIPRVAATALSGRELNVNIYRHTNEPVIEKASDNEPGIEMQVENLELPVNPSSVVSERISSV

Muscarinic M3 = Muscarinic M3 (Homo sapiens, UniProt P20309); test: Receptor binding, M3
Sigma σ2 = Sigma σ2 (Homo sapiens, UniProt Q5BJF2); test: Receptor binding, σ2
Serotonin 5-HT6 = Serotonin 5-HT6 (Homo sapiens, UniProt P50406); test: Receptor binding, 5-HT6
Serotonin 5-HT5A = Serotonin 5-HT5A (Homo sapiens, UniProt P47898); test: Receptor binding, 5-HT5A
Serotonin 5-HT2A = Serotonin 5-HT2A (Homo sapiens, UniProt P28223); test: Receptor binding, 5-HT2A
Serotonin 5-HT1B = Serotonin 5-HT1B (Homo sapiens, UniProt P28222); test: Receptor binding, 5-HT1B
α-Adrenergic α1B = α-Adrenergic α1B (Homo sapiens, UniProt P35368); test: Receptor binding, α1B
α-Adrenergic α1D = α-Adrenergic α1D (Homo sapiens, UniProt P25100); test: Receptor binding, α1D
Sequence of α-Adrenergic α1D (P25100 whole entry): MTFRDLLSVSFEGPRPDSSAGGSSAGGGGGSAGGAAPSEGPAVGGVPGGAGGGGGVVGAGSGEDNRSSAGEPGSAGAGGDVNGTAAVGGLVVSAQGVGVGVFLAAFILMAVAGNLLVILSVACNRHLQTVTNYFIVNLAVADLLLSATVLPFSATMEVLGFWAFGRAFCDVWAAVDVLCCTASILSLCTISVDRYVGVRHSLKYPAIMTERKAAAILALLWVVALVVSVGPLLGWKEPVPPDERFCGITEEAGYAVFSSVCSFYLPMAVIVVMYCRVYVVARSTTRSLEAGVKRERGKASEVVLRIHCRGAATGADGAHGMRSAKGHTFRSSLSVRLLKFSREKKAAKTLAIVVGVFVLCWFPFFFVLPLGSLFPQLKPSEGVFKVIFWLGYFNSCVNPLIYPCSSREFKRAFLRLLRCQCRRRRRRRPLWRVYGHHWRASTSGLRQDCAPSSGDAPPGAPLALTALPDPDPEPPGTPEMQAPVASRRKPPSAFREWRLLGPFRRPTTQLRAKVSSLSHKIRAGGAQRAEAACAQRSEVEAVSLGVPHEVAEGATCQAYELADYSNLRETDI

Sequence of Serotonin 5-HT6 (P50406 whole entry): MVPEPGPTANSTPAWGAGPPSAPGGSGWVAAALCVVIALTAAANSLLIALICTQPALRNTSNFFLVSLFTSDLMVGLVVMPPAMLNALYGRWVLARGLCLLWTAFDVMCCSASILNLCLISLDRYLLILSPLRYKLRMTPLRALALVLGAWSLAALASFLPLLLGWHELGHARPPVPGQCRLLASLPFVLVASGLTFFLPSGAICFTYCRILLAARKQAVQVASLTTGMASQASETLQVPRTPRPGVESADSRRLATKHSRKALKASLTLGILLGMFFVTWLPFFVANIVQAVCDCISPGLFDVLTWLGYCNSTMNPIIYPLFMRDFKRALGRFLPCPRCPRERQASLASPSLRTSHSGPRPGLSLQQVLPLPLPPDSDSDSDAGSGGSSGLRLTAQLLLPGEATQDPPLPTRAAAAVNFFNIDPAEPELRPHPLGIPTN
Sequence of Sigma σ2 (Q5BJF2 whole entry): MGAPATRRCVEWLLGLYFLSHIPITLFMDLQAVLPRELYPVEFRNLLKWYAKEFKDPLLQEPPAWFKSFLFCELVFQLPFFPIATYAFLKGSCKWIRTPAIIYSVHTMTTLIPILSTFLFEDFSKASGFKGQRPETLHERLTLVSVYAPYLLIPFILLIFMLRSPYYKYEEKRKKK
Sequence of Sigma σ1 (Q99720 whole entry): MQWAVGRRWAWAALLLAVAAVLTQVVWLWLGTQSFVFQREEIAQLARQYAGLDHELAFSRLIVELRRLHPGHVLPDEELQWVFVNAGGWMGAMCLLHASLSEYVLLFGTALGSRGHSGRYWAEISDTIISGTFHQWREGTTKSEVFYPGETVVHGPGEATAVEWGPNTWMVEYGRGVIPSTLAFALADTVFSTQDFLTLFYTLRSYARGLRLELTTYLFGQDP
Sequence of Muscarinic M4 (P08173 whole entry): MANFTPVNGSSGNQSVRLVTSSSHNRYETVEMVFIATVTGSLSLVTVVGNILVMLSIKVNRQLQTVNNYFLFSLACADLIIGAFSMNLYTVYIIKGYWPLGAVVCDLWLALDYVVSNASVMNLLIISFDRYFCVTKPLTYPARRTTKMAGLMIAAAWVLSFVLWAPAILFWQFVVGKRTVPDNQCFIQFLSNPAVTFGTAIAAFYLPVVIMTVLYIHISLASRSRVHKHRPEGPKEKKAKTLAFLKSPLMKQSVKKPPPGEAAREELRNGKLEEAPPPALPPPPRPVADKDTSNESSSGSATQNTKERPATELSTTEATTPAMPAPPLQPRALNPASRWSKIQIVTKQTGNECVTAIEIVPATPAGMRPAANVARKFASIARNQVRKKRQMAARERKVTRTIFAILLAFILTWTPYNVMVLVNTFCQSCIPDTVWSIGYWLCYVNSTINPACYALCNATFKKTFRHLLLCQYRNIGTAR
Sequence of Serotonin 5-HT1B (P28222 whole entry): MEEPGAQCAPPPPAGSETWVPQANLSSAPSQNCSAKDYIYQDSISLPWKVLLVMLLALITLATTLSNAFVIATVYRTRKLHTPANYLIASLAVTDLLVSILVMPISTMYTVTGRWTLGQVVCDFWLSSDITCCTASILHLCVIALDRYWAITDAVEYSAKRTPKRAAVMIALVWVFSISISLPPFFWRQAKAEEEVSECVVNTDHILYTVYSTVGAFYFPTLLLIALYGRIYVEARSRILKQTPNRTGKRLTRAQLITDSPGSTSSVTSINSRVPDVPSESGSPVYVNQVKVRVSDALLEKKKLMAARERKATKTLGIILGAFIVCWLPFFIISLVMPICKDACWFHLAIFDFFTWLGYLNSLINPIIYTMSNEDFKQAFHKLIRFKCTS
Sequence of Serotonin 5-HT2A (P28223 whole entry): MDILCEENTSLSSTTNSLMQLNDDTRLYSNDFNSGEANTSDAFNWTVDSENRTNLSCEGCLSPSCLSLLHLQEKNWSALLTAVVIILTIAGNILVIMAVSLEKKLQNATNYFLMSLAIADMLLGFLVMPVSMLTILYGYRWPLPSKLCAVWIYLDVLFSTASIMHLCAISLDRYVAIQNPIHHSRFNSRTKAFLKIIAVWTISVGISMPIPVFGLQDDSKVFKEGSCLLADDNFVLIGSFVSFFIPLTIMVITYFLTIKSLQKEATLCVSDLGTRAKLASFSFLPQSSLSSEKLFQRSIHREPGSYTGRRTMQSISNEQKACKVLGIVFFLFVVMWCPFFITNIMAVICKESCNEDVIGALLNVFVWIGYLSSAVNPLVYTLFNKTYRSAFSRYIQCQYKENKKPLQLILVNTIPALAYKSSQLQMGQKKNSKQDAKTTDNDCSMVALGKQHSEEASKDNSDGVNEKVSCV
Sequence of Serotonin 5-HT5A (P47898 whole entry): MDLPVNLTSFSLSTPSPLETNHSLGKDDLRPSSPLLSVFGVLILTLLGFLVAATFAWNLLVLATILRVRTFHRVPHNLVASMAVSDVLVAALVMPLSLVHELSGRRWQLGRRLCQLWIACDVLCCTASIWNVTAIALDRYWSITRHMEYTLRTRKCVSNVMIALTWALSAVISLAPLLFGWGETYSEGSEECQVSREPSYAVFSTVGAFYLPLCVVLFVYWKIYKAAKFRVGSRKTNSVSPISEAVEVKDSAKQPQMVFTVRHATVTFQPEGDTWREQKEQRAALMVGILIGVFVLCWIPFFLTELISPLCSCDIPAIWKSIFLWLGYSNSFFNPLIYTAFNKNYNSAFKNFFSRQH
Sequence of α-Adrenergic α1A (P35348 whole entry): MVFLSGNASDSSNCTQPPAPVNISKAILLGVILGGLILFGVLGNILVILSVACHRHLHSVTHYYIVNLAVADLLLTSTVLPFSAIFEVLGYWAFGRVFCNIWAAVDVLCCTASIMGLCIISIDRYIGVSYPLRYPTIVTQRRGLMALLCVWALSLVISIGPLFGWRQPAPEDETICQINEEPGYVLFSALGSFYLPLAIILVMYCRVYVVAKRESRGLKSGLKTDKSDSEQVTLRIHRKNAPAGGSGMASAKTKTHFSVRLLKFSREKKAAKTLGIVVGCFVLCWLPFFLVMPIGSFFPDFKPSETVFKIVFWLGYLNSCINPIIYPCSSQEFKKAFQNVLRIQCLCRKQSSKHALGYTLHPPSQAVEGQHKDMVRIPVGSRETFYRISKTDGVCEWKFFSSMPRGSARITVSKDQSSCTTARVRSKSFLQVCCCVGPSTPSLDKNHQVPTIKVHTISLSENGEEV
Sequence of Dopamine D5 (P21918 whole entry): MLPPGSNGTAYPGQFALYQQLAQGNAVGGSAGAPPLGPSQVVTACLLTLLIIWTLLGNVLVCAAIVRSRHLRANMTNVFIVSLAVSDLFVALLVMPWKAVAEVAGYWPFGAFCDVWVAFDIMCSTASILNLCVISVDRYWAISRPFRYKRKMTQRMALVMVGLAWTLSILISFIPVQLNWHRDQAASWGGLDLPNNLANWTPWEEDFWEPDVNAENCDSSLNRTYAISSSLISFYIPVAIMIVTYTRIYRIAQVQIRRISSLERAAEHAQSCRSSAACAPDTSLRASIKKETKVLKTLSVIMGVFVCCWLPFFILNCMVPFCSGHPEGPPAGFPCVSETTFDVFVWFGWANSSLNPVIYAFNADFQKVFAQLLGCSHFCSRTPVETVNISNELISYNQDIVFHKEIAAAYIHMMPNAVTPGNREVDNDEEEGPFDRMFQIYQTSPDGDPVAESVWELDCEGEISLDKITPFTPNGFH
Sequence of Histamine H2 (P25021 whole entry): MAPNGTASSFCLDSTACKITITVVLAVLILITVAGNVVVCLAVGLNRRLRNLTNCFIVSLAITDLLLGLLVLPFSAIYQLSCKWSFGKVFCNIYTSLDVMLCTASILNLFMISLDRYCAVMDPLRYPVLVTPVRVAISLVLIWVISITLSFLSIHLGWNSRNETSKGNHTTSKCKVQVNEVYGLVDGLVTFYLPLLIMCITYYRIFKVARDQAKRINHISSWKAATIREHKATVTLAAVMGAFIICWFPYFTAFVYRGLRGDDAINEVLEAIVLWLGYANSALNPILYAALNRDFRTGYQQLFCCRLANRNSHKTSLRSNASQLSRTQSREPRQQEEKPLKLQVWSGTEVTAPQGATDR
Sequence of β-Adrenergic β2 (P07550 whole entry): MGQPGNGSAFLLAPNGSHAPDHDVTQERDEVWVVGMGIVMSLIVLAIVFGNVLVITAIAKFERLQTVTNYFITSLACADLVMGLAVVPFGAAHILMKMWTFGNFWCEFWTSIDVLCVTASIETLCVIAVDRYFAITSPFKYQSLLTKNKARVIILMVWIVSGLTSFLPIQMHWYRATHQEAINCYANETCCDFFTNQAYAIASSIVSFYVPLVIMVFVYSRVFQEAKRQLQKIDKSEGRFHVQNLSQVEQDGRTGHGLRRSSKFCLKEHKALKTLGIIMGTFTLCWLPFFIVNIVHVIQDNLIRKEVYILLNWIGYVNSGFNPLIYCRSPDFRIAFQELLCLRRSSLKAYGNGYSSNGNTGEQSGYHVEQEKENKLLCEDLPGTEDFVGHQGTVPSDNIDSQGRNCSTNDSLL

Ki (Sigma σ1): 0.22 µM
Ki (α-Adrenergic α2B): > 10 µM
Ki (α-Adrenergic α1A): 5.86 µM
Ki (α-Adrenergic α2C): 0.507 µM
Ki (Dopamine D5): > 10 µM
Ki (Serotonin 5-HT2B): 0.195 µM
Ki (Histamine H2): 4.73 µM
Ki (Muscarinic M4): > 10 µM
Ki (β-Adrenergic β2): > 10 µM
Ki (Serotonin 5-HT2C; 5-HT2C): 0.247 µM
binding, in words (Serotonin 5-HT2C; HT2c, summary of Table 1): moderate binding
Ki (Muscarinic M3): > 10 µM
Ki (Sigma σ2; σ2): 1.81 µM
binding, in words (Sigma σ2; σ2, text summary of Table 1): moderate binding
Ki (Serotonin 5-HT6; 5-HT6): 0.189 µM
binding, in words (Serotonin 5-HT6; 5-HT6, text summary of Table 1): moderate binding
Ki (Serotonin 5-HT5A): 1.91 µM
Ki (Serotonin 5-HT2A): 0.927 µM
Ki (Serotonin 5-HT1B): 0.738 µM
Ki (α-Adrenergic α1B): > 10 µM
Ki (α-Adrenergic α1D): 5.03 µM
SMILES: CN1CCc2c(c3cccc4c3n2Cc2ccccc2O4)C1 [Compound 13b]
increase in motor activity elicited by MDMA ([1]; 10 mg/kg i.p. 30 min before MDMA 10 mg/kg): partially
increase in motor activity elicited by MDMA ([1]; 20 mg/kg i.p. 30 min before MDMA 10 mg/kg): completely blocked
